Data reported in EP0119332A1, “Novel pyranose oxidase processes for the production and use thereof and test compositions for use therein” (priority 1983, dated 1984).
Read-outs that look alike come from different tables or passages of the source.

Tests used:
Format in all cases: biochemical
pyranose oxidase [1] = molecular target: T1, pyranose oxidase (Trametes versicolor, UniProt P79076)
T1 construct: made in house; host or cells: Coriolus versicolor ATCC 20155, the native producer (not recombinant); Enzyme was purified from disrupted mycelium by HPA-75, Sepharose 4B and Sephadex G-100 columns
Procedure: In this phase, 1.4 ml of 50 mM tris-hydrochloride buffer (pH 7.0), 0.1. ml of 250 mU enzyme solution and 0.5 ml of electron acceptor solutions having various concentrations as indicated in Table 2 were put into a cell with Thunberg tube. After saturating with dissolved oxygen, the reaction solution was mixed with 0.5 ml of a 0.1 M glucose solution. The change in absorbancy per minute from 30 minutes to 90 minutes after mixing was determined and the activities of the electron acceptors are expressed as relative activity.

pyranose oxidase [2] = molecular target: T1, pyranose oxidase; assay: biochemical
Procedure: Samples of the enzyme were dissolved in Tris buffer solutions have the pH indicated in Figure 2 to make up enzyme solutions having an activity of 250 mU/3.7 ml. Each of the enzyme solutions was put into a BIOXYGRAPH cell (trade name for a cell for measuring oxygen concentration made by Kyusui Kagaku Laboratory, Japan), and 50 µℓ of 1 M glucose were added. Measurements were made to determine the amount of absorbed oxygen.
Various inhibitors were studied in the same manner as that adopted in determination of the optimum pH. A reaction solution comprising 3.4 ml of 50 mM tris-hydrochloride buffer (pH 7.0), 0.1 ml of enzyme solutin containing 280 mU of pyranose oxidase and 0.2 ml of 18.5 mM inhibitor solution were put into a cell for measuring oxygen uptake and 50µℓof 1M glucose were added thereto and the sample incubated at 37°C.

pyranose oxidase [3] = molecular target: T1, pyranose oxidase; assay: Substrate specificity (relative activity on carbohydrates, peroxidase/4AA-phenol colour assay); conditions: substrate: 0.1 ml of 100 mM carbohydrate liquor; enzyme 2.5 U/ml; percentage of the glucose reaction
Procedure: A 3.0 ml sample is first prepared comprising 1.0 ml of 0.1 M tris-hydrochloride buffer (pH 7.0), 0.2 ml of a colouring reagent prepared in advance as hereinafter described, 0.1 ml of 1 M glucose solution, 0.1 ml of a solution of the pyranose oxidase at a known concentration, 0.1 ml of 0.1 mM flavinadenine dinucleotide and 1.5 ml of distilled water. Said colouring reagent is prepared by adding 0.1 M tris-hydrochloride buffer (pH 7.0) containing 10 m mol ℓ4-aminoantipyrine (hereinafter referred to as 4AA) and 10 m mol/Zphenol, to an amount of a peroxidase which is sufficient to provide a peroxidase concentration in said buffer of 2000 U per 100 mI. The pyranose oxidase containing sample is incubated at 37°C and the increasing rate of the absorbancy at 500 nm is automatically measured on a spectrophotometer. If the molecular extinction coefficient of a quinoneimine pigment formed under these conditions is defined as 5.3 x 10^3, and one unit of enzymatic activity is defined as the amount of the enzyme that produces one µ mole of hydrogen peroxide per minute at a temperature of 37°C and at a pH of 7.0, then the enzymatic activity (A) of the pyranose oxidase in the sample can be defined by the following formula:- [formula] where A500 is the rate of increase of the absorbancy of the sample per minute at 500nm.
The same reactions as described in the assay method for enzymatic activity were repeated except that an enzyme concentration of 2.5 U/ml was used, and, as the substrate, 0.1 ml samples of various carbohydrate liquors indicated in Table I were used, each such liquor having a concentration of 100 mM. […] The specificity with respect to the latter two, in particular being a great deal lower than that of the known pyranose oxidase derived from microorganisms of the genus Polyporus (Table 1 of B.B.A. 167, 501-510 (1968)).

[4] = electron acceptor concentration 0.1 mM, pH 7.0, 250 mU enzyme solution, 0.1 M glucose solution
[5] = 0.2 ml of 18.5 mM inhibitor solution, 280 mU pyranose oxidase, pH 7.0, 37°C, 50 µl of 1M glucose

Compound: O=C1C(Cl)=CC(=Nc2ccc(O)cc2)C=C1Cl [2,6-Dichlorophenolindophenol]
- Relative Activity (%) (pyranose oxidase [1]; electron acceptor concentration 0.04 mM, pH 7.0, 250 mU enzyme solution, 0.1 M glucose solution): 2.5%

Compound: Oc1cccc2cccnc12 [8-hydroxyquinoline]
- Percent Inhibition (%) (pyranose oxidase [2]; pH 7): 13.3%

Compound: NC(=O)c1ccc[n+]([C@@H]2O[C@H](COP(=O)([O-])OP(=O)(O)OC[C@H]3O[C@@H](n4cnc5c(N)ncnc54)[C@H](OP(=O)(O)O)[C@@H]3O)[C@@H](O)[C@H]2O)c1 [Nicotinamide-adenine dinucleotide phosphate]
- Relative Activity (%) (pyranose oxidase [1]; [4]): 0%

Compound: NC(=O)c1ccc[n+]([C@@H]2O[C@H](COP(=O)([O-])OP(=O)(O)OC[C@H]3O[C@@H](n4cnc5c(N)ncnc54)[C@H](O)[C@@H]3O)[C@@H](O)[C@H]2O)c1 [Nicotinamide-adenine dinucleotide]
- Relative Activity (%) (pyranose oxidase [1]; [4]): 0%

Compound: O=O [Oxygen]
- electron acceptor suitability (in words) (pyranose oxidase [1]): optimum electron acceptor
- Relative Activity (%) (pyranose oxidase [1]; pH 7): 100%

Compound: O=C(CO)[C@@H](O)[C@H](O)[C@H](O)CO [fructose]
- Relative Activity (%) (pyranose oxidase [3]): 0%

Compound: O=C[C@H](O)[C@@H](O)[C@@H](O)[C@H](O)CO [galactose]
- Relative Activity (%) (pyranose oxidase [3]): 0.9%

Compound: O=C(O)[C@H](O)[C@@H](O)[C@H](O)[C@H](O)CO [gluconic acid]
- Relative Activity (%) (pyranose oxidase [3]): 0%

Compound: N[C@H]1C(O)O[C@H](CO)[C@@H](O)[C@@H]1O (stereo partly shown) [glucosamine]
- Relative Activity (%) (pyranose oxidase [3]): 0%

Compound: OO [hydrogen peroxide]
- inhibition at 18500 µM (pyranose oxidase [2]; pH 7, read-out: Percent Inhibition (%)): 20%

Compound: OC[C@H]1O[C@@H](O[C@H]2[C@H](O)[C@@H](O)C(O)O[C@@H]2CO)[C@H](O)[C@@H](O)[C@H]1O (stereo partly shown) [lactose]
- Relative Activity (%) (pyranose oxidase [3]): 0%

Compound: OC[C@H]1O[C@H](O[C@H]2[C@H](O)[C@@H](O)[C@H](O)O[C@@H]2CO)[C@H](O)[C@@H](O)[C@@H]1O [maltose]
- Relative Activity (%) (pyranose oxidase [3]): 0%

Compound: OC[C@@H](O)[C@@H](O)[C@H](O)[C@H](O)CO [mannitol]
- Relative Activity (%) (pyranose oxidase [3]): 0%

Compound: O=[N+]([O-])[O-].[Ag+] [silver nitrate]
- Percent Inhibition (%) (pyranose oxidase [2]; [5]): 53.3%

Compound: O=C(CO)[C@H](O)[C@@H](O)[C@H](O)CO [sorbose]
- Relative Activity (%) (pyranose oxidase [3]): 3.4%

Compound: OC[C@H]1O[C@H](O[C@H]2O[C@H](CO)[C@@H](O)[C@H](O)[C@H]2O)[C@H](O)[C@@H](O)[C@@H]1O [trehalose]
- Relative Activity (%) (pyranose oxidase [3]): 0%

Compound: O=C[C@H](O)[C@@H](O)[C@H](O)CO [xylose]
- Relative Activity (%) (pyranose oxidase [3]): 2.6%

Compound: Nitroprusside-tetrazolium
- Relative Activity (%) (pyranose oxidase [1]; [4]): 0%

Compound: cobalt sulfate
- Percent Inhibition (%) (pyranose oxidase [2]; [5]): 13.3%

Compound: copper sulfate
- Percent Inhibition (%) (pyranose oxidase [2]; [5]): 35.7%

Compound: magnesium sulfate
- Percent Inhibition (%) (pyranose oxidase [2]; [5]): 0%
